How the values were obtained:
Type in all cases: functional
HepG2 [1] = experiment: Hepatoprotective activity against APAP-induced cytotoxicity in human HepG2 cells assessed as cell viability at 40 uM pretreated for 8 hrs followed by APAP addition for 36 hrs by MTT assay (reference value: 68.1%); conditions: time 44 hrs, read-out: Activity
HepG2 [2] = experiment: Hepatoprotective activity against APAP-induced cytotoxicity in human HepG2 cells assessed as cell viability at 40 to 80 uM pretreated for 8 hrs followed by APAP addition for 36 hrs by MTT assay (reference value: 68.1%); conditions: dose 40-80 µM, time 44 hrs
HepG2 [3] = experiment: Hepatoprotective activity against APAP-induced cytotoxicity in human HepG2 cells assessed as cell viability at 50 ug/mL pretreated for 8 hrs followed by APAP addition for 36 hrs by MTT assay (reference value: 68.1%); conditions: time 44 hrs, read-out: Activity

| SMILES | viability at 40 µM (HepG2 [1]) [%] | Activity (HepG2 [2]) [%] | further results |
| --- | --- | --- | --- |
| C=CC1C(CC(OC)OC)C(C(=O)O[C@H]2CC3C(C(=O)OC)=CO[C@@H](O[C@@H]4O[C@H](CO)[C@@H](O)[C@H](O)[C@H]4O)C3[C@H]2C)=CO[C@H]1O[C@@H]1O[C@H](CO)[C@@H](O)[C@H](O)[C@H]1O (stereo partly specified) | 75.6 |  |  |
| C=C[C@H]1[C@H](O[C@@H]2O[C@H](CO)[C@@H](O)[C@H](O)[C@H]2O)OC=C(C(=O)O[C@H]2C[C@@H]3C(C(=O)OC)=CO[C@@H](O[C@@H]4O[C@H](CO)[C@@H](O)[C@H](O)[C@H]4O)[C@@H]3[C@H]2C)[C@H]1C[C@@H]1O[C@@H]2[C@@H](O)[C@@H](OC[C@H]3O[C@@](CO)(O[C@H]4O[C@H](CO)[C@@H](O)[C@H](O)[C@H]4O)[C@@H](O)[C@@H]3O)O[C@H](CO)[C@@H]2O1 |  | 75.6 |  |
| C=C[C@H]1[C@H](O[C@@H]2O[C@H](CO)[C@@H](O)[C@H](O)[C@H]2O)OC=C(C(=O)O[C@H]2C[C@@H]3CCOC(=O)[C@@H]3[C@H]2C)[C@H]1C[C@@H](O)O[C@@H](O)C[C@@H]1C(C(=O)O[C@H]2C[C@@H]3CCOC(=O)[C@@H]3[C@H]2C)=CO[C@@H](O[C@@H]2O[C@H](CO)[C@@H](O)[C@H](O)[C@H]2O)[C@@H]1C=C | 75.6 |  |  |
| C=C[C@H]1[C@H](O[C@@H]2O[C@H](CO)[C@@H](O)[C@H](O)[C@H]2O)OC=C(C(=O)O[C@H]2C[C@@H]3C(C(=O)OC)=CO[C@@H](O[C@@H]4O[C@H](CO)[C@@H](O)[C@H](O)[C@H]4O)[C@@H]3[C@H]2C)[C@H]1CC=O |  | 75.6 |  |
| COc1cc([C@H]2Oc3cc([C@H]4Oc5cc(O)cc(O)c5C(=O)[C@@H]4O)ccc3O[C@@H]2CO)ccc1O [SILYBIN A] |  |  | viability at 50 µg/mL (HepG2 [3]): 90.9% |
| C=C[C@H]1[C@H](O[C@@H]2O[C@H](CO)[C@@H](O)[C@H](O)[C@H]2O)OC=C2C(=O)OCC[C@H]21 [SWEROSIDE] |  | 75.6 |  |

Source: ChEMBL document CHEMBL6153134, “Anti-inflammatory and Hepatoprotective Iridoid Glycosides from the Roots of Gomphandra mollis” (J Nat Prod, 2025)
